Results from patent US20250214993A1, “AROMATIC RING COMPOUND AND USE THEREOF” (SHANGHAI SHIJIANG BIOTECHNOLOGY CO., LTD, priority 2022, published 2025).

Key:
Assay type in all cases: cell-based
Con-NCI-H82 cell = experiment: Cell viability (Promega CellTiter-Glo, intracellular ATP), IC50 on Con-NCI-H82 cell; details: Homo sapiens; normal untreated NCI-H82 cell (control)
Source text: (§1) The expression of NNMT protein in NCI-H82 cell was overexpressed by inserting the NNMT gene into NCI-H82 cell using a viral vector, and the NNMT protein-overexpressing NCI-H82 cell (ov-NNMT NCI-H82 cell) was obtained. The normal and untreated NCI-H82 cell (Con-NCI-H82 cell) was used as control. The expressing content of NNMT protein in the ov-NNMT NCI-H82 cell and Con-NCI-H82 cell was detected using Western Blot assay (as shown in FIG. 1), it could be seen from FIG. 1 that the NNMT protein was overexpressed in the ov-NNMT NCI-H82 cell compared with the expression level of NNMT protein in the Con-NCI-H82 cell.
(§2) The cell viability was detected using the Promega CellTiter-Glo kit which reflected cell viability by measuring intracellular ATP content. The Con-NCI-H82 cell and ov-NNMT NCI-H82 cell was cultured in 10% fetal bovine serum-containing RPMI1640 medium (+P/S).

ov-NNMT NCI-H82 cell = experiment: Cell viability (Promega CellTiter-Glo, intracellular ATP), IC50 on NNMT-overexpressing NCI-H82 cell; details: Homo sapiens; NCI-H82 cell overexpressing NNMT protein
Source text: as §1, §2

mPTP-active Daoy cell = experiment: Cell viability (Promega CellTiter-Glo), IC50 on mPTP-active Daoy cell; details: Homo sapiens; Daoy cell transfected with empty virus vector
mPTP-inactive Daoy cell = experiment: Cell viability (Promega CellTiter-Glo), IC50 on mPTP-inactive Daoy cell (PPIF shRNA); details: Homo sapiens; Daoy cell transfected with PPIF shRNA vector

IC50 (ov-NNMT NCI-H82 cell) | SMILES | IC50 (Con-NCI-H82 cell) | IC50 (mPTP-active Daoy cell) | IC50 (mPTP-inactive Daoy cell)
1.13 µM | O=C1c2cc(Cl)ccc2CCC1n1ccc2c[n+](CC3CCCC3)ccc21 (centres unmarked) [AB27316] | 0.167 µM | 5.89 µM | 1.17 µM
2.73 µM | CC(c1ccccc1)n1cc2cc[n+](C3CCc4ccc(Cl)cc4C3=O)cc2c1 (centres unmarked) [AB27481] | 0.228 µM | 2.72 µM | 0.65 µM
36.5 µM | Nc1cc[n+](CC(=O)c2ccccc2)cc1 [AB36527] | 39.7 µM | 39.1 µM | 40.9 µM
0.253 µM | Cc1ccc(C(=O)Cn2ccc3c[n+](Cc4ccccc4)cc(C)c32)cc1 [AB27256] | 0.022 µM | 0.33 µM | 0.12 µM
4.15 µM | Cc1ccc(C(=O)C[n+]2ccc3c(c2)CCN3Cc2ccccc2)cc1 [AB24995] | 0.92 µM | 6.32 µM | 1.98 µM
0.489 µM | O=C(Cn1c(Cl)cc2c[n+](Cc3ccccc3)ccc21)c1cccc(OC(F)(F)F)c1 [AB27486] | 0.034 µM | 0.58 µM | 0.28 µM
9.82 µM | O=C1c2cc(Cl)ccc2CCC1[n+]1ccc(NCc2ccccc2)nc1 (centres unmarked) [AB27138] | 1.1 µM | 8.82 µM | 3.62 µM
1.02 µM | O=C1c2cc(F)ccc2CCC1[n+]1cnc2c(ccn2Cc2ccccc2)c1 (centres unmarked) [AB27355] | 0.121 µM | 5.92 µM | 1.17 µM
1.26 µM | CC(=O)N(Cc1ccccc1)c1cc[n+](C2CCc3ccc(Cl)cc3C2=O)cc1 (centres unmarked) [AB27230] | 0.126 µM | 2.92 µM | 0.92 µM
2.69 µM | CCCCn1ccc2c[n+](C3CCc4ccc(Cl)cc4C3=O)ccc21 (centres unmarked) [AB27251] | 0.482 µM | 7.89 µM | 1.96 µM
2.05 µM | O=C1c2cc(OC(F)(F)F)ccc2CCC1[n+]1ccc2cn(Cc3ccccc3)cc2c1 (centres unmarked) [AB27289] | 0.285 µM |  | 
7.62 µM | O=C1c2occc2CCC1[n+]1ccc2c(ccn2Cc2ccccc2)c1 (centres unmarked) [AB27206] | 2.54 µM |  | 
5.48 µM | O=C(C[n+]1ccc2c(c1)CCC(c1ccccc1)N2)c1cccc(OC(F)(F)F)c1 (centres unmarked) [AB27147] | 1.39 µM |  | 
0.284 µM | Cc1ccc(C(=O)C[n+]2ccc(NCc3ccccc3)c(C)c2C)cc1 [AB27278] | 0.021 µM |  | 
12.4 µM | O=C1c2cc(Cl)ccc2CCC1[n+]1ccc2c(c1)CCC(c1ccccc1)N2 (centres unmarked) [AB27134] | 3.35 µM |  | 
1.13 µM | Cc1cc(NCc2ccccc2)cc[n+]1CC(=O)c1cccc(OC(F)(F)F)c1 [AB27276] | 0.092 µM |  | 
3.05 µM | CCC(=O)N(Cc1ccccc1)c1cc[n+](CC(=O)c2ccc(C)cc2)cc1 [AB27232] | 0.29 µM |  | 
1.03 µM | O=C1c2ccc(OC(F)(F)F)cc2CCC1n1ccc2c[n+](Cc3ccccc3)ccc21 (centres unmarked) [AB27291] | 0.079 µM |  | 
4.53 µM | Cc1cc(NCc2ccccc2)cc[n+]1CC(=O)c1ccc(OC(F)(F)F)cc1 [AB27274] | 0.664 µM |  | 
6.43 µM | Cc1nc2c(s1)C(=O)C(n1ccc3c[n+](C(C)c4ccccc4)ccc31)CC2 (centres unmarked) [AB27203] | 1.94 µM |  | 
6.45 µM | Cc1cccc(-c2c[nH]c3c[n+](CC(=O)c4ccc(OC(F)(F)F)cc4)ccc23)c1 [AB27121] | 2.26 µM |  | 

IC50 (ov-NNMT NCI-H82 cell) | SMILES | IC50 (Con-NCI-H82 cell) | IC50 (mPTP-active Daoy cell) | IC50 (mPTP-inactive Daoy cell)
14.6 µM | O=C1c2cc(OC(F)(F)F)ccc2CCC1[n+]1cnc2c(c1)CCC(c1ccccc1)N2 (centres unmarked) [AB27136] | 5.61 µM |  | 
0.822 µM | CCc1cc(NCc2ccccc2)cc[n+]1CC(=O)c1ccc(C)cc1 [AB27236] | 0.05 µM |  | 
1.35 µM | Cc1cn(C2CCc3ccc(C(F)(F)F)cc3C2=O)c2cc[n+](Cc3ccccc3)cc12 (centres unmarked) [AB27464] | 0.175 µM |  | 
0.243 µM | Cc1ccc(C(=O)Cn2ccc3c[n+](Cc4ccccc4)ccc32)cc1 [AB27260] | 0.013 µM |  | 
0.235 µM | Cc1cccc(C(=O)Cn2ccc3c[n+](Cc4ccccc4)ccc32)c1 [AB27259] | 0.018 µM |  | 
0.184 µM | Cc1cccc(C[n+]2ccc3c(ccn3C3CCc4ccc(Cl)cc4C3=O)c2)c1 (centres unmarked) [AB27241] | 0.014 µM |  | 
5.48 µM | Cc1ccc(C(=O)C[n+]2ccc(NCc3ccccc3)c3ccccc32)cc1 [AB27272] | 0.776 µM |  | 
2.99 µM | Cc1ccc(C(=O)C[n+]2ccc3c(c2)CCN3c2ccccc2)cc1 [AB24994] | 0.81 µM |  | 
9.35 µM | Cc1cn(CC(=O)c2ccc(OC(F)(F)F)cc2)c2cc[n+](Cc3ccccc3)cc12 [AB27461] | 1.98 µM |  | 
1.54 µM | Cc1cc(NCc2ccccc2)cc[n+]1CC(=O)c1ccc(C(F)(F)F)cc1 [AB27273] | 0.187 µM |  | 
4.83 µM | CC(c1ccccc1)[n+]1ccc2c(ccn2C2CCc3ccsc3C2=O)c1 (centres unmarked) [AB27199] | 0.446 µM |  | 
0.944 µM | O=C1c2ccc(C(F)(F)F)cc2CCC1n1ccc2c[n+](Cc3ccccc3)ccc21 (centres unmarked) [AB27290] | 0.091 µM |  | 
7.1 µM | Cc1c(Cl)c2c[n+](Cc3ccccc3)ccc2n1C1CCc2ccc(Cl)cc2C1=O (centres unmarked) [AB27485] | 0.504 µM |  | 
0.184 µM | O=C1c2cc(Cl)ccc2CCC1n1ccc2c[n+](Cc3ccccc3Cl)ccc21 (centres unmarked) [AB27243] | 0.015 µM |  | 
6.32 µM | CC(C)n1ccc2c[n+](C3CCc4ccc(OC(F)(F)F)cc4C3=O)ccc21 (centres unmarked) [AB27157] | 1.53 µM |  | 
0.283 µM | Cc1cn(CC(=O)c2cccc(F)c2)c2cc[n+](Cc3ccccc3)cc12 [AB27478] | 0.023 µM |  | 
13.4 µM | Cc1nc2c(s1)C(=O)C([n+]1ccc3c(ccn3Cc3ccccc3)c1)CC2 (centres unmarked) [AB27204] | 3.45 µM |  | 
5.43 µM | O=C1c2ccc(OC(F)(F)F)cc2CCC1[n+]1ccc2c(c1)CCC(c1ccccc1)N2 (centres unmarked) [AB27105] | 0.874 µM |  | 
0.868 µM | O=C1c2cc(Cl)ccc2CCC1n1ccc2c[n+](Cc3ccc(Cl)cc3)ccc21 (centres unmarked) [AB27245] | 0.088 µM |  | 
0.285 µM | Cc1ccc(C[n+]2ccc3c(ccn3C3CCc4ccc(Cl)cc4C3=O)c2)cc1 (centres unmarked) [AB27240] | 0.015 µM |  | 
1.65 µM | O=C1c2cc(OC(F)(F)F)ccc2CCC1[n+]1ccc2c(ccn2CC2CC2)c1 (centres unmarked) [AB27247] | 0.403 µM |  | 

IC50 (ov-NNMT NCI-H82 cell) | SMILES | IC50 (Con-NCI-H82 cell) | IC50 (mPTP-active Daoy cell) | IC50 (mPTP-inactive Daoy cell)
5.04 µM | O=C1c2ccc(C(F)(F)F)cc2CCC1[n+]1ccc(NCc2ccccc2)cc1 (centres unmarked) [AB27110] | 0.996 µM |  | 
0.567 µM | O=C1c2cc(Cl)ccc2CCC1n1cc(Cl)c2c[n+](Cc3ccccc3)ccc21 (centres unmarked) [AB27271] | 0.034 µM |  | 
3.69 µM | Cc1cn(CC(=O)c2cccc(Cl)c2)c2cc[n+](C(C)c3ccccc3)cc12 (centres unmarked) [AB27270] | 0.401 µM |  | 
6.84 µM | O=C(Cn1ncc2c[n+](Cc3ccccc3)ccc21)c1cccc(C(F)(F)F)c1 [AB27499] | 0.921 µM |  | 
4.59 µM | O=C(C[n+]1ccc2c(c1)CCC(c1ccccc1)N2)c1ccc(C(F)(F)F)cc1 (centres unmarked) [AB27102] | 1.16 µM |  | 
0.525 µM | Cc1ccc(C(=O)C[n+]2ccc(NCc3ccccc3)cc2C(C)C)cc1 [AB27237] | 0.039 µM |  | 
2.98 µM | CC(C)n1ccc2c[n+](C3CCc4ccc(C(F)(F)F)cc4C3=O)ccc21 (centres unmarked) [AB27151] | 1.04 µM |  | 
2.96 µM | CC(c1ccccc1)[n+]1ccc2c(cnn2C2CCc3ccc(Cl)cc3C2=O)c1 (centres unmarked) [AB31806] | 0.257 µM |  | 
2.18 µM | O=C(Cn1cc(Cl)c2c[n+](Cc3ccccc3)ccc21)c1cccc(Cl)c1 [AB27269] | 0.233 µM |  | 
1.09 µM | Cc1cc2c[n+](Cc3ccccc3)ccc2n1CC(=O)c1ccc(OC(F)(F)F)cc1 [AB27358] | 0.083 µM |  | 
0.754 µM | Cc1cn(CC(=O)c2cccc(Cl)c2)c2cc[n+](Cc3ccccc3)cc12 [AB27266] | 0.089 µM |  | 
13.5 µM | Cc1ccc(C(=O)C[n+]2ccc(NCc3ccc(C)nc3)cc2C)cc1 [AB27330] | 5.11 µM |  | 
5.87 µM | Cc1ccc(C(=O)C[n+]2ccc3c(Cc4ccccc4)cn(C)c3c2C)cc1 [AB27343] | 2.04 µM |  | 
0.332 µM | O=C1c2cc(F)ccc2CCC1n1ccc2c[n+](Cc3ccccc3)ccc21 (centres unmarked) [AB27353] | 0.019 µM |  | 
17.5 µM | O=C(Cn1cnc2c[n+](Cc3ccccc3)ccc21)c1cccc(OC(F)(F)F)c1 [AB31702] | 5.46 µM |  | 
2.55 µM | Cc1ccc2c(c1)C(=O)C(n1ncc3c[n+](Cc4ccccc4)ccc31)CC2 (centres unmarked) [AB31776] | 0.146 µM |  | 
1.98 µM | Cc1ccc(C(=O)C[n+]2ccc(N(Cc3ccccc3)C(=O)C(C)C)cc2)cc1 [AB27235] | 0.178 µM |  | 
12.3 µM | O=C(Cn1cnc2c[n+](Cc3ccccc3)ccc21)c1cccc(C(F)(F)F)c1 [AB31703] | 2.15 µM |  | 
1.21 µM | Cc1cc2c[n+](Cc3ccccc3)ccc2n1C1CCc2ccc(F)cc2C1=O (centres unmarked) [AB27473] | 0.081 µM |  | 
6.53 µM | O=C1c2ccc(C(F)(F)F)cc2CCC1[n+]1ccc2cn(Cc3ccccc3)cc2c1 (centres unmarked) [AB27294] | 1.05 µM |  | 
0.886 µM | Cc1cc(NCc2ccccc2)cc[n+]1CC(=O)c1cccc(C(F)(F)F)c1 [AB27275] | 0.063 µM |  | 
